PubChem BioAssay AID192 (DTP/NCI, 2004)
Values joined by “and” are separate entries in the source; they are usually repeats but may differ in a detail not shown here. Equal values may be shown once. Inconclusive results and toxic doses are left out. Peptide text beside a SMILES is read from it. * marks the point of attachment. Cbz = O=C(OCc1ccccc1)*

Test system: BDF1 mice, B16 melanoma ip, median survival T/C
Assay: NCI In Vivo Anticancer Drug Screen. Data for tumor model B16 Melanoma (intraperitoneal) in B6D2F1 (BDF1) mice
Details: endpoint: median survival time, higher = longer survival
Outline: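 Tumor-bearing mice received test compound or vehicle. Survival or tumor size was then measured in both groups. The treated-group figure was divided by the control-group figure.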

[1] = dose: 6.25 mg/kg/injection, schedule: Q01DX009 (ip), vehicle: saline
[2] = dose: 12.5 mg/kg/injection, schedule: Q01DX009 (ip), vehicle: saline
[3] = dose: 25.0 mg/kg/injection, schedule: Q01DX009 (ip), vehicle: saline
[4] = dose: 50.0 mg/kg/injection, schedule: Q01DX009 (ip), vehicle: saline
[5] = dose: 12.5 mg/kg/injection, schedule: Q01DX009 (ip), vehicle: saline with Tween-80
[6] = dose: 25.0 mg/kg/injection, schedule: Q01DX009 (ip), vehicle: saline with Tween-80
[7] = dose: 100.0 mg/kg/injection, schedule: Q01DX009 (ip), vehicle: Klucel (hydroxypropylcellulose) (HPC)
[8] = dose: 200.0 mg/kg/injection, schedule: Q01DX009 (ip), vehicle: Klucel (hydroxypropylcellulose) (HPC)
[9] = dose: 400.0 mg/kg/injection, schedule: Q01DX009 (ip), vehicle: Klucel (hydroxypropylcellulose) (HPC)
[10] = dose: 50.0 mg/kg/injection, schedule: Q01DX009 (ip), vehicle: saline with Tween-80
[11] = dose: 100.0 mg/kg/injection, schedule: Q01DX009 (ip), vehicle: saline with Tween-80
[12] = dose: 1.25 mg/kg/injection, schedule: Q01DX009 (ip), vehicle: saline
[13] = dose: 2.5 mg/kg/injection, schedule: Q01DX009 (ip), vehicle: saline
[14] = dose: 5.0 mg/kg/injection, schedule: Q01DX009 (ip), vehicle: saline
[15] = dose: 200.0 mg/kg/injection, schedule: Q01DX009 (ip), vehicle: saline with Tween-80

`CC(=O)N(NC(C)C)C(C)C` was tested, and the T/C [1] was 111 % of control, the T/C [2] was 103 % of control and the T/C [3] was 99 % of control. The T/C [4] was 102 % of control.
For `CSC(=S)N/N=C/c1ccccn1`, the T/C (dose: 0.75 mg/kg/injection, schedule: Q01DX009 (ip), vehicle: saline with Tween-80) was 86 % of control, the T/C (dose: 1.5 mg/kg/injection, schedule: Q01DX009 (ip), vehicle: saline with Tween-80) was 89 % of control and the T/C (dose: 3.0 mg/kg/injection, schedule: Q01DX009 (ip), vehicle: saline with Tween-80) was 86 % of control. For the same compound, the T/C (dose: 6.0 mg/kg/injection, schedule: Q01DX009 (ip), vehicle: saline with Tween-80) was 94 % of control, the T/C [5] was 110 % of control and the T/C [6] was 105 % of control.
For `COC(=O)/C=C/N1C(=O)c2ccccc2C1=O`, the T/C [7] was 91 % of control, the T/C (dose: 135.0 mg/kg/injection, schedule: Q01DX009 (ip), vehicle: Klucel (hydroxypropylcellulose) (HPC)) was 90 % of control and the T/C [8] was 95 % of control. The T/C (dose: 300.0 mg/kg/injection, schedule: Q01DX009 (ip), vehicle: Klucel (hydroxypropylcellulose) (HPC)) was 95 % of control and the T/C [9] was 91 % of control.
For `COC(C(=O)C(O)C(C)O)C1CC2C=C3C=C(OC4CC(OC5CC(O)C(OC)C(C)O5)C(OC(C)=O)C(C)O4)C(C)C(=O)C3=C(O)C2=C(O)C1OC1CC(OC2CC(OC3CC(C)(O)C(O)C(C)O3)C(O)C(C)O2)C(O)C(C)O1` (stereo not given), the T/C (dose: 0.25 mg/kg/injection, schedule: Q01DX009 (ip), vehicle: saline with Tween-80) was 108 % of control, the T/C (dose: 0.5 mg/kg/injection, schedule: Q01DX009 (ip), vehicle: saline with Tween-80) was 112 % of control and the T/C (dose: 1.0 mg/kg/injection, schedule: Q01DX009 (ip), vehicle: saline with Tween-80) was 110 % of control and 116 % of control. For the same compound, the T/C (dose: 2.6 mg/kg/injection, schedule: Q01DX009 (ip), vehicle: saline with Tween-80) was 157 % of control, the T/C (dose: 4.0 mg/kg/injection, schedule: Q01DX009 (ip), vehicle: saline with Tween-80) was 154 % of control and 167 % of control and the T/C (dose: 8.0 mg/kg/injection, schedule: Q01DX009 (ip), vehicle: saline with Tween-80) was 165 % of control.
With `COc1ccc2c(ccc3oc([N+](=O)[O-])cc32)c1` the T/C (dose: 12.5 mg/kg/injection, schedule: Q01DX009 (ip), vehicle: Klucel (hydroxypropylcellulose) (HPC)) was 115 % of control, the T/C (dose: 25.0 mg/kg/injection, schedule: Q01DX009 (ip), vehicle: Klucel (hydroxypropylcellulose) (HPC)) was 118 % of control and the T/C (dose: 50.0 mg/kg/injection, schedule: Q01DX009 (ip), vehicle: Klucel (hydroxypropylcellulose) (HPC)) was 123 % of control.
`O=C(Nc1ccccc1F)Nc1cccc2ccccc12` was tested, and the T/C [7] was 100 % of control, the T/C [8] was 88 % of control and the T/C [9] was 94 % of control.
In the case of `COc1ccc(/C=C(\C)[N+](=O)[O-])cc1OC`, the T/C (dose: 12.5 mg/kg/injection, schedule: Q01DX009 (ip), vehicle: other) is reported as 88 % of control and the T/C (dose: 25.0 mg/kg/injection, schedule: Q01DX009 (ip), vehicle: other) is reported as 93 % of control.
For `Cc1ccc(CCCC(=O)O)c(C)c1`, the T/C [7] was 104 % of control, the T/C [8] was 96 % of control and the T/C [9] was 97 % of control.
In the case of `FC(F)(F)c1ccc2c(c1)N(CCCN1CCN(CCN3CCCCC3)CC1)c1ccccc1S2`, the T/C (dose: 0.78 mg/kg/injection, schedule: Q01DX009 (ip), vehicle: saline) is reported as 100 % of control, the T/C (dose: 1.56 mg/kg/injection, schedule: Q01DX009 (ip), vehicle: saline) is reported as 105 % of control and the T/C [1] is reported as 97 % of control.
`CC(C)NCC(O)COc1cccc2ccccc12` (stereo not given) was tested, and the T/C (dose: 4.0 mg/kg/injection, schedule: Q01DX009 (ip), vehicle: Klucel (hydroxypropylcellulose) (HPC)) was 99 % of control and 112 % of control, the T/C (dose: 8.0 mg/kg/injection, schedule: Q01DX009 (ip), vehicle: Klucel (hydroxypropylcellulose) (HPC)) was 101 % of control and the T/C (dose: 16.0 mg/kg/injection, schedule: Q01DX009 (ip), vehicle: Klucel (hydroxypropylcellulose) (HPC)) was 98 % of control and 108 % of control. The T/C (dose: 32.0 mg/kg/injection, schedule: Q01DX009 (ip), vehicle: Klucel (hydroxypropylcellulose) (HPC)) was 91 % of control and 95 % of control and the T/C (dose: 64.0 mg/kg/injection, schedule: Q01DX009 (ip), vehicle: Klucel (hydroxypropylcellulose) (HPC)) was 97 % of control and 101 % of control.
`COC(=O)CNC(=O)C(NC(=O)C1CCCN1C(=O)OCc1ccccc1)C(C)C` (stereo not drawn) (Cbz-Pro-Val-Gly-OMe; configuration not given here) was tested, and the T/C [10] was 91 % of control and the T/C [11] was 88 % of control.
With `NC(CCC(=O)NC(CS)C(=O)NCC(=O)O)C(=O)O` (stereo not given) the T/C [4] was 124 % of control, the T/C (dose: 100.0 mg/kg/injection, schedule: Q01DX009 (ip), vehicle: saline) was 98 % of control and the T/C (dose: 200.0 mg/kg/injection, schedule: Q01DX009 (ip), vehicle: saline) was 98 % of control. The T/C (dose: 400.0 mg/kg/injection, schedule: Q01DX009 (ip), vehicle: saline) was 100 % of control.
For `CC(C)CC(NC(=O)OC(C)(C)C)C(=O)ON1C(=O)CCC1=O` (stereo not given), the T/C (dose: 6.25 mg/kg/injection, schedule: Q01DX009 (ip), vehicle: saline with Tween-80) was 93 % of control, the T/C [5] was 93 % of control and the T/C [6] was 96 % of control. The T/C [10] was 90 % of control and 92 % of control.
With `c1ccc2c(c1)ccc1c[n+]3ccccc3cc12` the T/C (dose: 0.25 mg/kg/injection, schedule: Q01DX009 (ip), vehicle: saline) was 114 % of control, the T/C (dose: 0.5 mg/kg/injection, schedule: Q01DX009 (ip), vehicle: saline) was 100 % of control and the T/C (dose: 1.0 mg/kg/injection, schedule: Q01DX009 (ip), vehicle: saline) was 97 % of control.
`C=CCN(CC=C)C(=O)CCN1CC1` was tested, and the T/C [12] was 100 % of control, the T/C (dose: 1.25 mg/kg/injection, schedule: Q04DX003 (ip), vehicle: saline) was 102 % of control and the T/C [13] was 100 % of control. For the same compound, the T/C (dose: 2.5 mg/kg/injection, schedule: Q04DX003 (ip), vehicle: saline) was 100 % of control, the T/C [14] was 100 % of control and the T/C (dose: 5.0 mg/kg/injection, schedule: Q04DX003 (ip), vehicle: saline) was 105 % of control.
For `O=C1CC(=O)C(Br)=C1Br`, the T/C (dose: 0.08 mg/kg/injection, schedule: Q01DX009 (ip), vehicle: saline with Tween-80) was 97 % of control, the T/C (dose: 0.15 mg/kg/injection, schedule: Q01DX009 (ip), vehicle: saline with Tween-80) was 93 % of control and the T/C (dose: 0.3 mg/kg/injection, schedule: Q01DX009 (ip), vehicle: saline with Tween-80) was 95 % of control. The T/C (dose: 0.37 mg/kg/injection, schedule: Q04DX003 (ip), vehicle: saline with Tween-80) was 94 % of control, the T/C (dose: 75.0 micrograms/kg/injection, schedule: Q04DX003 (ip), vehicle: saline with Tween-80) was 92 % of control and the T/C (dose: 150.0 micrograms/kg/injection, schedule: Q04DX003 (ip), vehicle: saline with Tween-80) was 92 % of control. For the same compound, the T/C (dose: 300.0 micrograms/kg/injection, schedule: Q04DX003 (ip), vehicle: saline with Tween-80) was 91 % of control.
In the case of `CCN(CC)CCOC(=O)Cc1cccc2c(=O)cc(-c3ccccc3)oc12`, the T/C [3] is reported as 109 % of control and the T/C [4] is reported as 113 % of control.
For `C=CCCCCCCCCC(=O)N(CCOC)CCOC`, the T/C [6] was 115 % of control, the T/C (dose: 25.0 mg/kg/injection, schedule: Q04DX003 (ip), vehicle: saline with Tween-80) was 97 % of control and the T/C [10] was 102 % of control. The T/C (dose: 50.0 mg/kg/injection, schedule: Q04DX003 (ip), vehicle: saline with Tween-80) was 91 % of control and the T/C (dose: 100.0 mg/kg/injection, schedule: Q04DX003 (ip), vehicle: saline with Tween-80) was 89 % of control.
`Cc1c(Cl)cccc1NC(=O)NCCC(C)C` was tested, and the T/C [5] was 103 % of control, the T/C [6] was 100 % of control and the T/C [10] was 96 % of control.
For `O=Cc1ccc(C(Cl)(Cl)Cl)cc1`, the T/C [5] was 91 % of control, the T/C [6] was 103 % of control and the T/C [10] was 101 % of control and 104 % of control. The T/C [11] was 106 % of control and 107 % of control and the T/C [15] was 103 % of control and 110 % of control.
For `O=NN(CCCl)C(=O)NC1[C@H](O)CCC[C@@H]1O` (stereo not given in full), the T/C (dose: 0.63 mg/kg/injection, schedule: Q01DX009 (ip), vehicle: saline) was 159 % of control, the T/C [12] was 208 % of control and the T/C [13] was 295 % of control. For the same compound, the T/C [14] was 295 % of control.
With `CCCC(C(=O)OCCN(CC)CC)(c1ccccc1)c1ccccc1` the T/C (dose: 3.12 mg/kg/injection, schedule: Q01DX009 (ip), vehicle: saline) was 95 % of control, the T/C [1] was 102 % of control and the T/C [2] was 100 % of control. The T/C [3] was 97 % of control.
In the case of `O=[N+]([O-])c1ccc(NCc2ccccc2)nc1`, the T/C [6] is reported as 100 % of control, the T/C [10] is reported as 100 % of control and the T/C [11] is reported as 121 % of control. The T/C [15] was 105 % of control.
In the case of `CC1(C)C2CCC1(C)C(COC(=O)c1cc([N+](=O)[O-])cc([N+](=O)[O-])c1)C2` (stereo not given), the T/C [7] is reported as 96 % of control, the T/C [8] is reported as 93 % of control and the T/C [9] is reported as 87 % of control.
With `C(=N\Nc1nn[nH]n1)/c1ccccc1` the T/C [5] was 92 % of control, the T/C [6] was 96 % of control and the T/C [10] was 89 % of control. The T/C [11] was 90 % of control.
